The record followed here is patent US20250114460A1, “NOVEL PLK1 DEGRADATION INDUCING COMPOUND” (UPPTHERA, INC., priority 2021, published 2025).

What all share (format): cell-based
One assay has as its system NCI-H526 cell line. The experiment in a line: Cell viability assay for H526 cell (EZ-Cytox). To be noted: Homo sapiens, NCI-H526, 120 h; H526 cells, 5 days, 3000 nM to 0.46 nM. In short, it runs like this: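 NCI-H526 cells were exposed to compound in CO2 incubator culture for 5 days. Viability was read by EZ-Cytox absorbance at 450 nm after 3 min shaking, giving IC50 values.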

A further assay concerns MRC-5 cell line. The experiment in a line: Cell viability assay for MRC-5 cell line (EZ-Cytox). The settings on record: Homo sapiens, MRC5, 120 h, read-out: Activity: IC50 value of Exemplary Compound to MRC-5 cell line. How it is done: 4. Cell Viability Assay for MRC-5 Cell Line
(1) Culture of MRC-5 Cell Line
Passage of cultured cells was maintained within P15.
(2) Treatment of Compounds of the Present Invention
Then, it was cultured in 37° C.
(3) Cytotoxicity Experiment
CO2 incubator for 4 hours.

A further assay deals with T1, PLK1 (Homo sapiens, UniProt P53350).
T1 construct: endogenous in cells; host or cells: HeLa LgBit (Plk1-HiBit KI): HeLa stably expressing LgBit, with a CRISPR/Cas9 knock-in of HiBit at the endogenous PLK1 locus
T1 sequence (P53350 whole entry): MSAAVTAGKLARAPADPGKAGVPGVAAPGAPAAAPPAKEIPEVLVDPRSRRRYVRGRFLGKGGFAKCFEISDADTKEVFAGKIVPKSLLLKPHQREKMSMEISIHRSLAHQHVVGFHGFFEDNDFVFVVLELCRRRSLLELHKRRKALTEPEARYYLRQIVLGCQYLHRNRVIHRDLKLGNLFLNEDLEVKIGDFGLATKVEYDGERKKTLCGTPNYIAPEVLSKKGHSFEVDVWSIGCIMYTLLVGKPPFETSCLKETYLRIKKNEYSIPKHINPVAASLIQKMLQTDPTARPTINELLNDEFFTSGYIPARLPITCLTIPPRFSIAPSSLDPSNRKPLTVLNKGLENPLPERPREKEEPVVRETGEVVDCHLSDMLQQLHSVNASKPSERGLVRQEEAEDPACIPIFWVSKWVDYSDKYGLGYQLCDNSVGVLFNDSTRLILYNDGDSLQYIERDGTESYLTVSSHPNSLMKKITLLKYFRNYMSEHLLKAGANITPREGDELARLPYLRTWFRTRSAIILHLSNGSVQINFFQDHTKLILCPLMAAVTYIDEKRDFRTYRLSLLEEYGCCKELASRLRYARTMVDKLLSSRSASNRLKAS
The experiment in a line: Luciferase assay for PLK1 in HeLa LgBit (Plk1-HiBit KI) cell line. The settings on record: 300 nM compound, luminescence after 9 hours. The method in brief: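 HeLa cells stably expressing LgBit, with HiBit knocked in at the C-terminus of endogenous Plk1, released from a 24 h 2 mM thymidine block and grown 18 h. Endurazine added, then compound at 300 nM; luminescence tracked in real time, expressed as ratio to DMSO.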
A general note: The HiBiT peptide binds its large partner to form an active luciferase.

[1] abbreviates: MRC-5 normal cell line, 5 days, 10000 nM to 1.52 nM, N.D. = no cytotoxicity until 10 μM.

Read-outs that look alike come from different tables or passages of the source. A value given as a limit tells only on which side of the number the result lay.

As a reminder, the IC50 is the concentration that gives 50% inhibition. On to `COc1cc(C(=O)NC2CCN(C(=O)CSc3cccc4c3C(=O)N(C3CCC(=O)NC3=O)C4=O)CC2)c(F)cc1Nc1ncc2c(n1)N(C1CCCC1)CC(F)(F)C(=O)N2C` (stereo not drawn) [Compound 41, 4-((9-cyclopentyl-7,7-difluoro-5-methyl-6-oxo-6,7,8,9-tetrahydro-5H-pyrimido[4,5-b][1,4]diazepin-2-yl)amino)-N-(1-(2-((2-(2,6-dioxopiperidin-3-yl)-1,3-dioxoisoindolin-4-yl)thio)acetyl)piperidin-4-yl)-2-fluoro-5-methoxybenzamide], for which the IC50 is less than 200 nM in the assay on NCI-H526 cell line and greater than 10 µM with MRC-5 cell line (setting [1]). The “Activity: ratio of the luminescense value of each Exemplary Compound treatment group to DMSO treatment group” value (“Activity: ratio” for short) at PLK1 is “++ (++<0.6)”.

On to `COc1cc(C(=O)NN2CCC(CCN3CCN(c4ccc5c(c4)C(=O)N(C4CCC(=O)NC4=O)C5=O)CC3)C2)ccc1Nc1ncc2c(n1)N(C1CCCC1)CC(F)(F)C(=O)N2C` (stereo not drawn) [Compound 149, 4-((9-cyclopentyl-7,7-difluoro-5-methyl-6-oxo-6,7,8,9-tetrahydro-5H-pyrimido[4,5-b][1,4]diazepin-2-yl)amino)-N-(3-(2-(4-(2-(2,6-dioxopiperidin-3-yl)-1,3-dioxoisoindolin-5-yl)piperazin-1-yl)ethyl)pyrrolidin-1-yl)-3-methoxybenzamide], for which the half-maximal inhibitory concentration (IC50) in the assay with NCI-H526 cell line was less than 50 nM; in the assay with MRC-5 cell line (setting [1]) it was greater than 10 µM. Also, the “Activity: ratio” value at PLK1 is “++ (++<0.6)”.

As to `COc1cc(C(=O)NC2CCN(C(=O)CCCOc3cccc4c3C(=O)N(C3CCC(=O)NC3=O)C4=O)CC2)ccc1Nc1ncc2c(n1)N(C1CCCC1)CC(F)(F)C(=O)N2C` (stereo not drawn) [Compound 31, 4-((9-cyclopentyl-7,7-difluoro-5-methyl-6-oxo-6,7,8,9-tetrahydro-5H-pyrimido[4,5-b][1,4]diazepin-2-yl)amino)-N-(1-(4-((2-(2,6-dioxopiperidin-3-yl)-1,3-dioxoisoindolin-4-yl)oxy)butanoyl)piperidin-4-yl)-3-methoxybenzamide], the IC50 is less than 100 nM with NCI-H526 cell line and greater than 10 µM in the assay with MRC-5 cell line (setting [1]). Also, the “Activity: ratio” value on PLK1 is recorded as “+++ (+++: <0.3)”.

As for `COc1cc(C(=O)NC2CCCN(CCN3CCN(c4cccc5c4C(=O)N(C4CCC(=O)NC4=O)C5=O)CC3)C2)ccc1Nc1ncc2c(n1)N(C1CCCC1)CC(F)(F)C(=O)N2C` (stereo not drawn) [Compound 143, 4-((9-cyclopentyl-7,7-difluoro-5-methyl-6-oxo-6,7,8,9-tetrahydro-5H-pyrimido[4,5-b][1,4]diazepin-2-yl)amino)-N-(1-(2-(4-(2-(2,6-dioxopiperidin-3-yl)-1,3-dioxoisoindolin-4-yl)piperazin-1-yl)ethyl)piperidin-3-yl)-3-methoxybenzamide], the concentration for half-maximal inhibition (IC50) with NCI-H526 cell line is less than 100 nM; with MRC-5 cell line, greater than 10 µM. Also, the “Activity: ratio” value at PLK1 was “++ (++<0.6)”.

Turning to `CN1C(=O)C(F)(F)CN(C2CCCC2)c2nc(Nc3ccc(C(=O)NC4CCN(C(=O)CCN5CCN(c6cccc7c6C(=O)N(C6CCC(=O)NC6=O)C7=O)CC5)CC4)cc3F)ncc21` (stereo not drawn) [Compound 118, 4-((9-cyclopentyl-7,7-difluoro-5-methyl-6-oxo-6,7,8,9-tetrahydro-5H-pyrimido[4,5-b][1,4]diazepin-2-yl)amino)-N-(1-(3-(4-(2-(2,6-dioxopiperidin-3-yl)-1,3-dioxoisoindolin-4-yl)piperazin-1-yl)propanoyl)piperidin-4-yl)-3-fluorobenzamide], the 50% inhibitory concentration (IC50) in the assay on NCI-H526 cell line was less than 50 nM; in the assay on MRC-5 cell line (setting [1]), greater than 10 µM. Moreover, the “Activity: ratio” value on PLK1 is listed as “++ (++<0.6)”.

With `COc1cc(C(=O)NC2CCN(C3CC4(CCN(c5cccc6c5C(=O)N(C5CCC(=O)NC5=O)C6=O)CC4)C3)CC2)c(F)cc1Nc1ncc2c(n1)N(C1CCCC1)CC(F)(F)C(=O)N2C` (stereo not drawn) [Compound 208, 4-((9-cyclopentyl-7,7-difluoro-5-methyl-6-oxo-6,7,8,9-tetrahydro-5H-pyrimido[4,5-b][1,4]diazepin-2-yl)amino)-N-(1-(7-(2-(2,6-dioxopiperidin-3-yl)-1,3-dioxoisoindolin-4-yl)-7-azaspiro[3.5]nonan-2-yl)piperidin-4-yl)-2-fluoro-5-methoxybenzamide], the IC50 is less than 100 nM in the assay with NCI-H526 cell line and greater than 10 µM in the assay on MRC-5 cell line (setting [1]). Besides, the “Activity: ratio” value at PLK1 was “++ (++<0.6)”.

As to `COc1cc(C(=O)NC2CC(N(C)CCC3CCN(c4ccc5c(c4)C(=O)N(C4CCC(=O)NC4=O)C5=O)CC3)C2)ccc1Nc1ncc2c(n1)N(C1CCCC1)CC(F)(F)C(=O)N2C` (stereo not drawn) [Compound 106, 4-((9-cyclopentyl-7,7-difluoro-5-methyl-6-oxo-6,7,8,9-tetrahydro-5H-pyrimido[4,5-b][1,4]diazepin-2-yl)amino)-N-(3-((2-(1-(2-(2,6-dioxopiperidin-3-yl)-1,3-dioxoisoindolin-5-yl)piperidin-4-yl)ethyl)(methyl)amino)cyclobutyl)-3-methoxybenzamide], the IC50 is less than 100 nM with NCI-H526 cell line and greater than 10 µM with MRC-5 cell line (setting [1]). For the same compound, the “Activity: ratio” value on PLK1 is “+++ (+++: <0.3)”.

Take `COc1cc(C(=O)NC2CCN(C(=O)CCN3CCN(c4ccc5c(c4)CN(C4CCC(=O)NC4=O)C5=O)CC3)CC2)ccc1Nc1ncc2c(n1)N(C(C)C)CC(F)(F)C(=O)N2C` (stereo not drawn) [Compound 130, 4-((7,7-difluoro-9-isopropyl-5-methyl-6-oxo-6,7,8,9-tetrahydro-5H-pyrimido[4,5-b][1,4]diazepin-2-yl)amino)-N-(1-(3-(4-(2-(2,6-dioxopiperidin-3-yl)-1-oxoisoindolin-5-yl)piperazin-1-yl)propanoyl)piperidin-4-yl)-3-methoxybenzamide]: the half-inhibitory concentration (IC50) in the assay on NCI-H526 cell line is less than 30 nM; in the assay on MRC-5 cell line (setting [1]), greater than 10 µM. In addition, at PLK1, the “Activity: ratio” value was “++ (++<0.6)”.

In the case of `COc1cc(C(=O)NN2CCC(N3CC4(CCN(c5cccc6c5C(=O)N(C5CCC(=O)NC5=O)C6=O)CC4)C3)CC2)c(F)cc1Nc1ncc2c(n1)N(C(C)C)CC(F)(F)C(=O)N2C` (stereo not drawn) [Compound 210, 4-((7,7-difluoro-9-isopropyl-5-methyl-6-oxo-6,7,8,9-tetrahydro-5H-pyrimido[4,5-b][1,4]diazepin-2-yl)amino)-N-(4-(7-(2-(2,6-dioxopiperidin-3-yl)-1,3-dioxoisoindolin-4-yl)-2,7-diazaspiro[3.5]nonan-2-yl)piperidin-1-yl)-2-fluoro-5-methoxybenzamide], the IC50 in the assay with NCI-H526 cell line was less than 50 nM; with MRC-5 cell line (setting [1]), 18.2 µM. Moreover, the “Activity: ratio” value at PLK1 is “++ (++<0.6)”.

As to `COc1cc(C(=O)NC2CCN(C[C@H]3CCN(c4ccc5c(c4)C(=O)N(C4CCC(=O)NC4=O)C5=O)C3)CC2)ccc1Nc1ncc2c(n1)N(C1CCCC1)CC(F)(F)C(=O)N2C` (stereo partly drawn) [Compound 49, 4-((9-cyclopentyl-7,7-difluoro-5-methyl-6-oxo-6,7,8,9-tetrahydro-5H-pyrimido[4,5-b][1,4]diazepin-2-yl)amino)-N-(1-(((3R)-1-(2-(2,6-dioxopiperidin-3-yl)-1,3-dioxoisoindolin-5-yl)pyrrolidin-3-yl)methyl)piperidin-4-yl)-3-methoxybenzamide], the IC50 with NCI-H526 cell line is less than 50 nM; in the assay with MRC-5 cell line (setting [1]) it was greater than 10 µM. Also, on PLK1, the “Activity: ratio” value is reported as “++ (++<0.6)”.

For the compound `COc1cc(C(=O)NC2CCN(C(=O)COC3CCN(c4cccc5c4C(=O)N(C4CCC(=O)NC4=O)C5=O)CC3)CC2)ccc1Nc1ncc2c(n1)N(C1CCCC1)CC(F)(F)C(=O)N2C` (stereo not drawn) [Compound 79, 4-((9-cyclopentyl-7,7-difluoro-5-methyl-6-oxo-6,7,8,9-tetrahydro-5H-pyrimido[4,5-b][1,4]diazepin-2-yl)amino)-N-(1-(2-((1-(2-(2,6-dioxopiperidin-3-yl)-1,3-dioxoisoindolin-4-yl)piperidin-4-yl)oxy)acetyl)piperidin-4-yl)-3-methoxybenzamide], the concentration for half-maximal inhibition (IC50) was less than 100 nM in the assay on NCI-H526 cell line and greater than 10 µM in the assay on MRC-5 cell line (setting [1]). Further, at PLK1, the “Activity: ratio” value is “+++ (+++: <0.3)”.

With `COc1cc(C(=O)NC2CCCN(C(=O)CCN3CCN(c4cccc5c4C(=O)N(C4CCC(=O)NC4=O)C5=O)CC3)C2)ccc1Nc1ncc2c(n1)N(C1CCCC1)CC(F)(F)C(=O)N2C` (stereo not drawn) [Compound 123, 4-((9-cyclopentyl-7,7-difluoro-5-methyl-6-oxo-6,7,8,9-tetrahydro-5H-pyrimido[4,5-b][1,4]diazepin-2-yl)amino)-N-(1-(3-(4-(2-(2,6-dioxopiperidin-3-yl)-1,3-dioxoisoindolin-4-yl)piperazin-1-yl)propanoyl)piperidin-3-yl)-3-methoxybenzamide], the IC50 in the assay with NCI-H526 cell line was less than 100 nM; in the assay on MRC-5 cell line (setting [1]), greater than 10 µM. In addition, at PLK1, the “Activity: ratio” value is given as “++ (++<0.6)”.
